Reference: PMC12298827, “Subchronic Toxicities of Four Per- and Polyfluoroalkyl Substances (PFASs) by Oral Exposure in Sprague–Dawley Rats” (Toxics, 2025)

System: male and female Sprague–Dawley rats
Test: 90-day subchronic oral gavage toxicity study
Assay type: in vivo, rat
Set-up: key to NOEL, absolute liver weight increase / LOEL, absolute liver weight increase / NOEL, relative kidney weight increase / LOEL, relative kidney weight increase / NOEL, absolute kidney weight increase / LOEL, absolute kidney weight increase / NOEL, relative liver weight increase / LOEL, relative liver weight increase: NR: no response, no statistically significant dose-dependent changes
Method: Subchronic (90-day) studies were performed in accordance with current U.S. EPA’s Toxic Substances Control Act Good Laboratory Practice (GLP) Standards, with the following two general exceptions to the GLP guidelines: Analysis of the dose formulations was conducted according to RTI-approved Standard Operating Procedures, and corn oil (the vehicle) was not characterized (certificate of analysis from the vendor is available in the appendices to the final reports). Male and female Sprague–Dawley rats (five dose levels plus a control, n = 10/sex/dose group, corn oil vehicle dose volume of 3 mL/kg; oral gavage) were used in these studies, and the rats were euthanized on SD 91. The dose levels for PFHI were 0, 12.5, 25, 50, 100, and 200 mg/kg-day. The dose levels for MHFPK were 0, 18.8, 37.5, 75, 150, and 300 mg/kg-day. The dose levels for PFNAC were 0, 0.1, 0.3, 1.0, 3.0, and 10 mg/kg-day for male rats and 0, 0.3, 1.0, 3.0, 10, and 30 mg/kg-day for female rats. For CTFPA, the dose levels were 0, 1.9, 3.8. 7.5, 15, and 30 mg/kg-day for male rats and 0, 6.3, 12.5, 25, 50, and 100 mg/kg-day for female rats. For each PFAS, three batches of dosing solution were prepared. The time between the batch preparation of the dosing solutions ranged between 29 and 39 days. Blood samples were collected from all the rats at termination for serum chemistry, hematology, coagulation, and the analysis of the parent PFAS chemical in the plasma. In vivo data collection and further detail on the endpoints examined postmortem are described below.
The rats were observed twice daily for morbidity and mortality throughout the study period. At least once prior to randomization to test groups and weekly thereafter, the rats were physically examined, and bodyweights were obtained. Feed consumption was quantified weekly starting on SD 1.
Neurotoxicity was evaluated using the functional observational battery (FOB) and measuring locomotor activity (LMA) 2–4 h post dosing on SDs 78–80 and 80–84, respectively. For both the 14- and 90-day studies, an ophthalmologic examination was conducted prior to randomization and near the end of the study, using indirect ophthalmoscopy and slit–lamp biomicroscopy (as needed) after the administration of a mydriatic solution.
Hematology, biochemistry, and coagulation endpoints were measured at the termination of the study. A Siemens Advia 2120i hematology analyzer (Siemens Healthineers, Erlangen, Germany) was used to measure (or calculate) the parameters related to the complete blood count, leukocyte differential count, and reticulocyte count. The hematology parameters are listed and described in Table 2. The prothrombin time […] and activated partial thromboplastin time (APTT) were measured using an Instrumentation Laboratory (Bedford, MA, USA) ACL Elite Pro coagulation analyzer (laser–nephelometric centrifugal method).
At necropsy, the rats were visually examined for external abnormalities and organ weights (absolute and relative to the BW and brain weight), which were recorded (paired organs weighed together). The tissues were preserved in 10% neutral buffered formalin (NBF), except for the ocular tissues, testes, and epididymides, which were preserved in modified Davidson’s fixative and later transferred to 10% NBF. Bone marrow smears were prepared from the femurs, and the slides were air-dried, fixed in methanol, stained, and stored at room temperature for possible future evaluation. The preserved tissues were embedded in paraffin, sectioned, stained with hematoxylin and eosin, and examined by a board-certified veterinary pathologist.
Statistical analysis was performed using Provantis™ Version 10 or greater (Instem LSS, Limited; Stone, Staffordshire, UK). Differences among the treatment groups compared to the control were evaluated using one-way analysis of variance (ANOVA) if the underlying assumptions of a normal distribution (Shapiro–Wilk test) and the homogeneity of the variance (Levene’s test) were satisfied. […]

Structure (SMILES): CC(=O)C(F)(F)C(F)(F)C(F)(F)F [MHFPK, Methyl heptafluoropropyl ketone]
- Bodyweight (BW) and bodyweight gain (90-day, both sexes, all doses): No changes in BW or BW gain over the course of the study
- Clinical observations (90-day, both sexes, all doses): None
- Coagulation endpoints (90-day, both sexes, all doses): Males at ≥37.5 mg/kg-day, from minimal to mild dose-dependent prolongations in PT; no effects in females
- Feed consumption (90-day, both sexes, all doses): No changes in males; some statistically significant changes in females, not considered as compound related
- Functional observational battery (90-day, both sexes, all doses): No changes
- Gross lesions (90-day, both sexes, all doses): None considered as MHFPK related
- Hematology (90-day, both sexes, all doses): From minimal to mild dose-dependent increases in MPV in both sexes at ≥18.8 mg/kg-day
- Histopathology (90-day, both sexes, all doses): None considered as MHFPK related
- Locomotor activity (90-day, both sexes, all doses): No effects
- Morbidity and mortality (90-day, both sexes, all doses): None
- Ophthalmology (90-day, both sexes, all doses): No ocular lesions
- Organ weight changes (90-day, both sexes, all doses): None considered as MHFPK related
- LOEL, absolute kidney weight increase (female): NR
- LOEL, absolute liver weight increase (female): NR
- LOEL, relative kidney weight increase (female): NR
- LOEL, relative liver weight increase (female): NR
- NOEL, absolute kidney weight increase (female): NR
- NOEL, absolute liver weight increase (female): NR
- NOEL, relative kidney weight increase (female): NR
- NOEL, relative liver weight increase (female): NR
- % BW Gain (female, 18.8 mg/kg-day): 47.40%
- % Diff, % BW Gain (female, 18.8 mg/kg-day): 25.52%
- % Diff, Total BW change (female, 18.8 mg/kg-day): 27.05%
- % Diff, Total Food Consumed (female, 18.8 mg/kg-day): 11.67%
- A/G (female, 18.8 mg/kg-day): 1.12±0.13 ratio
- ABEOS (female, 18.8 mg/kg-day): 0.108±0.037 K/µL
- ABNEUT (female, 18.8 mg/kg-day): 1.004±0.296 K/µL
- ABRETi (female, 18.8 mg/kg-day): 195.85±38.05 10^9/L
- ALB (female, 18.8 mg/kg-day): 4.26 ± 0.27 g/dL
- ALPi (female, 18.8 mg/kg-day): 69.1±55.5 U/L
- APTT (female, 18.8 mg/kg-day): 16.80 s
- BUN (female, 18.8 mg/kg-day): 15.5 ± 2.2 mg/dL
- CHOL (female, 18.8 mg/kg-day): 100.6 ± 17.0 mg/dL
- GLOB (female, 18.8 mg/kg-day): 3.82 ± 0.36 g/dL
- GLUC (female, 18.8 mg/kg-day): 158.0 ± 18.9 mg/dL
- HCT (female, 18.8 mg/kg-day): 46.27±2.37%
- HGB (female, 18.8 mg/kg-day): 14.58 ± 0.67 g/dL
- Kidney Weight (female, 18.8 mg/kg-day): 1.94 g
- Kidney/Body Weight (female, 18.8 mg/kg-day): 0.56%
- Kidney/Brain Weight (female, 18.8 mg/kg-day): 96.5%
- Liver Weight (female, 18.8 mg/kg-day): 8.74 g
- Liver/Body Weight (female, 18.8 mg/kg-day): 2.51%
- Liver/Brain Weight (female, 18.8 mg/kg-day): 435%
- MPV (female, 18.8 mg/kg-day): 8.22 ± 0.82 fL
- PT (female, 18.8 mg/kg-day): 15.23 s
- RBC (female, 18.8 mg/kg-day): 7.887±0.439 M/µL
- Total BW change (female, 18.8 mg/kg-day): 115.68 g
- Total Food Consumed (female, 18.8 mg/kg-day): 1629 g
- % BW Gain (female, 37.5 mg/kg-day): 44.49%
- % Diff, % BW Gain (female, 37.5 mg/kg-day): 17.83%
- % Diff, Total BW change (female, 37.5 mg/kg-day): 18.53%
- % Diff, Total Food Consumed (female, 37.5 mg/kg-day): 1.46%
- A/G (female, 37.5 mg/kg-day): 1.05±0.08 ratio
- ABEOS (female, 37.5 mg/kg-day): 0.102±0.040 K/µL
- ABNEUT (female, 37.5 mg/kg-day): 1.068±0.314 K/µL
- ABRETi (female, 37.5 mg/kg-day): 190.80±35.78 10^9/L
- ALB (female, 37.5 mg/kg-day): 4.17 ± 0.35 g/dL
- ALPi (female, 37.5 mg/kg-day): 56.9±24.3 U/L
- APTT (female, 37.5 mg/kg-day): 18.10 s
- BUN (female, 37.5 mg/kg-day): 14.7 ± 2.4 mg/dL
- CHOL (female, 37.5 mg/kg-day): 106.5 ± 21.4 mg/dL
- GLOB (female, 37.5 mg/kg-day): 3.99 ± 0.28 g/dL
- GLUC (female, 37.5 mg/kg-day): 161.9 ± 28.0 mg/dL
- HCT (female, 37.5 mg/kg-day): 46.13±1.42%
- HGB (female, 37.5 mg/kg-day): 14.42 ± 0.61 g/dL
- Kidney Weight (female, 37.5 mg/kg-day): 1.84 g
- Kidney/Body Weight (female, 37.5 mg/kg-day): 0.55%
- Kidney/Brain Weight (female, 37.5 mg/kg-day): 91.4%
- Liver Weight (female, 37.5 mg/kg-day): 8.76 g
- Liver/Body Weight (female, 37.5 mg/kg-day): 2.58%
- Liver/Brain Weight (female, 37.5 mg/kg-day): 433%
- MPV (female, 37.5 mg/kg-day): 8.56 ± 0.67 fL
- PT (female, 37.5 mg/kg-day): 14.98 s
- RBC (female, 37.5 mg/kg-day): 7.864±0.307 M/µL
- Total BW change (female, 37.5 mg/kg-day): 107.92 g
- Total Food Consumed (female, 37.5 mg/kg-day): 1480 g
- % BW Gain (female, 75 mg/kg-day): 39.38%
